From ChEMBL document CHEMBL3576793, “Restoration of Chemosensitivity in P-Glycoprotein-Dependent Multidrug-Resistant Cells by Dihydro-β-agarofuran Sesquiterpenes from Celastrus vulcanicola” (J Nat Prod, 2015)

Key:
[1] = target: T1, ATP-dependent translocase ABCB1 (Homo sapiens, UniProt P08183); assay: Inhibition of human MDR1 transfected in mouse NIH/3T3 MDR1-G185 cells assessed as daunomycin accumulation at 10 uM after 30 mins by flow cytometry (reference value: 13.2 +/- 1.1%); assay type: cell-based; design: scale not given: the % may be the effect or the level left; settings: nih/3t3 mdr1-g185, 0.5 h
[2] = target: T1, ATP-dependent translocase ABCB1; assay: Inhibition of human MDR1 transfected in mouse NIH/3T3 MDR1-G185 cells assessed as […] daunomycin accumulation after 30 mins by flow cytometry; assay type: cell-based
[3] = Cytotoxicity against human MDR1 transfected mouse NIH/3T3 MDR1-G185 cells assessed as cell growth at 10 uM after 24 hrs by MTT assay; assay type: ADME, cell-based, NIH3T3; settings: mouse NIH/3T3 MDR1-G185 cells transfected with human MDR1, read-out: Activity
[4] = Cytotoxicity against mouse NIH/3T3 cells assessed as cell growth at 10 uM after 24 hrs by MTT assay; assay type: cell-based, NIH3T3; settings: read-out: Activity

T1 sequence (P08183 whole entry): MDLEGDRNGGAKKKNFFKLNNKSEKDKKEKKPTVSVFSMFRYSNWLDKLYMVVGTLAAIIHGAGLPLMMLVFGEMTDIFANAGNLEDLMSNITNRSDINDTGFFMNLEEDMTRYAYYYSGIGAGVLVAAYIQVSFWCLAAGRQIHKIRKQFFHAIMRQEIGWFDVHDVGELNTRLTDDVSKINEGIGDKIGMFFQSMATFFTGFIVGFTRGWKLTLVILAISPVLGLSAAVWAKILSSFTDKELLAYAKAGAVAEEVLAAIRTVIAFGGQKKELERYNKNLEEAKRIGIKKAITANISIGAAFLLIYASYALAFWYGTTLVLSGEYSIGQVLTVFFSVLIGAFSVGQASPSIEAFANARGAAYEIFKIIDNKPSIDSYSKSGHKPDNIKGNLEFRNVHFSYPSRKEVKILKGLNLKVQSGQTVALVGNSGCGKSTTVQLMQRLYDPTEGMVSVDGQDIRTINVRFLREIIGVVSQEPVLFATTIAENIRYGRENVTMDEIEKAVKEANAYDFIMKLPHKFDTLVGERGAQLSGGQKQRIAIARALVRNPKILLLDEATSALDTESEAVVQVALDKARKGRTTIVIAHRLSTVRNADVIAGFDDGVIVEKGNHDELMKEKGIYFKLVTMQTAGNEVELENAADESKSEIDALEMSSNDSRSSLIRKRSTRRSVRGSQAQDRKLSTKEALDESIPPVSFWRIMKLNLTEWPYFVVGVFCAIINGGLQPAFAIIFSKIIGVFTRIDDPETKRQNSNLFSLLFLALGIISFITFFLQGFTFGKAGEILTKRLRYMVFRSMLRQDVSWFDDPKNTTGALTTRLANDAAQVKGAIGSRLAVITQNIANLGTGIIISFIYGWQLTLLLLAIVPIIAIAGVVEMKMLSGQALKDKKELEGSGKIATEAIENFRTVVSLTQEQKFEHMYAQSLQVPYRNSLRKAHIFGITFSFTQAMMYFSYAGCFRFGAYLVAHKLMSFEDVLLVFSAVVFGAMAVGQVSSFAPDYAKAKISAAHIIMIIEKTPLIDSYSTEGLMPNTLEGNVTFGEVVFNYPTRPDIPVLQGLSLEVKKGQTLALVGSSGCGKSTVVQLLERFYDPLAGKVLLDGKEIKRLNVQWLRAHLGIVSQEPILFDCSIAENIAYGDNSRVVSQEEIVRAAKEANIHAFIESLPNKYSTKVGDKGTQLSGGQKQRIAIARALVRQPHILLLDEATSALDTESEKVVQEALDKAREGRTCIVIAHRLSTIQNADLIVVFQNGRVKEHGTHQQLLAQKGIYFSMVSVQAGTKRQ

Row | Activity [1] [%] | Ki [2] [nM] | SMILES | viability at 24 h, 10 µM [3] [%] | viability at 24 h, 10 µM [4] [%]
1 | 73.2 | – | CC(=O)OC[C@]12[C@@H](OC(=O)c3ccccc3)[C@@H](O)[C@@H]3[C@@H](OC(C)=O)[C@]1(OC3(C)C)[C@@](C)(O)C[C@H](OC(=O)c1ccccc1)[C@@H]2OC(C)=O | – | –
2 | 73.8 | – | CC(=O)OC[C@]12[C@@H](OC(=O)c3ccccc3)[C@@H](OC(C)=O)[C@@H]3[C@@H](OC(C)=O)[C@]1(OC3(C)C)[C@@](C)(O)C[C@H](OC(=O)c1ccccc1)[C@@H]2OC(C)=O | – | –
3 | 79.7 | 780 | CC(=O)OC[C@]12[C@@H](OC(=O)c3ccccc3)[C@@H](OC(C)=O)[C@@H]3[C@@H](OC(=O)c4ccccc4)[C@]1(OC3(C)C)[C@@](C)(O)C[C@H](OC(C)=O)[C@@H]2OC(C)=O | 71.4 | 64.4
4 | 85.1 | 420 | CC(=O)O[C@H]1C[C@](C)(O)[C@]23OC(C)(C)[C@H]([C@H](OC(=O)/C=C/c4ccccc4)[C@H](OC(=O)c4ccccc4)[C@]2(C)[C@H]1OC(C)=O)[C@H]3O | 78.4 | 69
5 | 73.1 | – | CC(=O)O[C@H]1[C@@H]2[C@@H](OC(=O)c3ccccc3)[C@@]3(OC2(C)C)[C@@](C)([C@@H](O)[C@@H](OC(C)=O)C[C@]3(C)O)[C@H]1OC(=O)c1ccccc1 | – | –
6 | 82.2 | 610 | CC(=O)O[C@H]1CC[C@](C)(O)[C@]23OC(C)(C)[C@H]([C@H](OC(=O)/C=C\c4ccccc4)[C@H](OC(=O)c4ccccc4)[C@]12C)[C@H]3OC(C)=O | 64.3 | 51.4
7 | 80.1 | 290 | CC(=O)O[C@H]1[C@@H](OC(=O)c2ccccc2)C[C@@H](C)[C@]23OC(C)(C)[C@H](C[C@H](OC(=O)c4ccccc4)[C@]12C)[C@H]3OC(=O)c1cccnc1 | 70.2 | 75.4
8 | 73.2 | – | CC(=O)O[C@@H]1[C@@H]2[C@@H](OC(=O)c3ccccc3)[C@@]3(OC2(C)C)[C@](C)([C@@H]1OC(=O)c1ccccc1)[C@@H](OC(C)=O)[C@@H](O)C[C@]3(C)O | – | –
9 | 37 | – | CC(=O)O[C@H]1[C@@H](OC(=O)c2ccccc2)[C@]2(C)[C@@H](O)[C@@H](OC(C)=O)C[C@](C)(O)[C@@]23C[C@@H]1C(C)(C)O3 | – | –
10 | 69.9 | – | CC(=O)OC[C@]12[C@@H](OC(=O)c3ccccc3)[C@@H](OC(C)=O)[C@@H]3[C@@H](OC(C)=O)[C@]1(OC3(C)C)[C@@](C)(O)C[C@H](OC(C)=O)[C@@H]2OC(C)=O | – | –
11 | 73.6 | – | CC(=O)OC[C@]12[C@@H](OC(=O)c3ccccc3)C[C@@H]3[C@@H](OC(C)=O)[C@]1(OC3(C)C)[C@@](C)(O)C[C@H](OC(=O)c1ccccc1)[C@@H]2OC(C)=O | – | –
12 | 72.4 | – | CC(=O)OC[C@@]12[C@@H](OC(C)=O)CC[C@](C)(O)[C@]13OC(C)(C)[C@H](C[C@@H]2OC(=O)c1ccccc1)[C@H]3OC(C)=O | – | –
13 | 68.2 | – | CC(=O)OC[C@]12[C@@H](OC(=O)c3ccccc3)[C@@H](OC(C)=O)[C@@H]3C[C@]1(OC3(C)C)[C@H](C)C[C@H](OC(C)=O)[C@@H]2OC(C)=O | – | –
14 | 60.3 | – | COc1ccc(CCN(C)CCCC(C#N)(c2ccc(OC)c(OC)c2)C(C)C)cc1OC (configuration not stated) | 80.8 | –
